System: 186277-243-T-J2-PDC multi-cell spheroid viability
Assay: Anticancer human tumor 186277-243-T-J2-PDC patient-derived colon adenocarcinoma cell line growth inhibition [PI3K]
Settings: for IC50: curve of first compound; for viability, T/C: stronger effect = lower value; active means viability on the fitted dose curve at most 10% of control; inactive means the rest
Summary of the method: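 Multi-cell spheroids combine tumor cells with HUVEC and human MSCs, treated with targeted agents alone or with inavolisib, alpelisib, duvelisib or copanlisib. Concentrations fall in half-log steps from at or near clinical Cmax, or from 10 microM where Cmax is unknown; viability read-out.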

[1] = second compound 0.0316 µM, first compound 0.0316 µM
[2] = second compound 0.0316 µM, first compound 0.1 µM
[3] = second compound 0.0316 µM, first compound 0.316 µM
[4] = second compound 0.0316 µM, first compound 1 µM
[5] = second compound 0.0316 µM, first compound 3.16 µM
[6] = second compound 0.0316 µM, first compound 10 µM
[7] = second compound 0.1 µM, first compound 0.0316 µM
[8] = second compound 0.1 µM, first compound 0.1 µM
[9] = second compound 0.1 µM, first compound 0.316 µM
[10] = second compound 0.1 µM, first compound 1 µM
[11] = second compound 0.1 µM, first compound 3.16 µM
[12] = second compound 0.1 µM, first compound 10 µM
[13] = second compound 0.316 µM, first compound 0.0316 µM
[14] = second compound 0.316 µM, first compound 0.1 µM
[15] = second compound 0.316 µM, first compound 0.316 µM
[16] = second compound 0.316 µM, first compound 1 µM
[17] = second compound 0.316 µM, first compound 3.16 µM
[18] = second compound 0.316 µM, first compound 10 µM
[19] = second compound 1 µM, first compound 0.0316 µM
[20] = second compound 1 µM, first compound 0.1 µM
[21] = second compound 1 µM, first compound 0.316 µM
[22] = second compound 1 µM, first compound 1 µM
[23] = second compound 1 µM, first compound 3.16 µM
[24] = second compound 1 µM, first compound 10 µM
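Further: spheroids exposed to compounds for seven days before viability reading.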
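Wherever viability, T/C is given: 100% = DMSO vehicle control viability.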

CC(C)NCC(C(=O)N1CCN(c2ncnc3c2C(C)CC3O)CC1)c1ccc(Cl)cc1 (centres undefined) + CC(Nc1ncnc2nc[nH]c12)c1cc2cccc(Cl)c2c(=O)n1-c1ccccc1
2280 nM: IC50 (second compound 0.0316 µM)
539 nM: IC50 (second compound 3.16 µM)
466 nM: IC50 (second compound 10 µM)
inactive: viability, T/C [1] 90.7% | viability, T/C [2] 78.6% | viability, T/C [3] 80.1% | viability, T/C [4] 60.4% | viability, T/C [5] 45.4% | viability, T/C [6] 31.2% | viability, T/C [7] 82.5% | viability, T/C [8] 94% | viability, T/C [9] 70.5% | viability, T/C [10] 50% | viability, T/C [11] 40.1% | viability, T/C [12] 28.2% | viability, T/C [13] 85.6% | viability, T/C [14] 92.2% | viability, T/C [15] 68.8% | viability, T/C [16] 48.9% | viability, T/C [17] 42.5% | viability, T/C [18] 26.3% | viability, T/C [19] 96.7% | viability, T/C [20] 77.5% | viability, T/C [21] 63.8% | viability, T/C [22] 49.6% | viability, T/C [23] 30% | viability, T/C [24] 23% | viability, T/C (second compound 3.16 µM, first compound 0.0316 µM) 96.5% | viability, T/C (second compound 3.16 µM, first compound 0.1 µM) 92.8% | viability, T/C (second compound 3.16 µM, first compound 0.316 µM) 58.7% | viability, T/C (second compound 3.16 µM, first compound 1 µM) 36.8% | viability, T/C (second compound 3.16 µM, first compound 3.16 µM) 30.9% | viability, T/C (second compound 3.16 µM, first compound 10 µM) 17.6% | viability, T/C (second compound 10 µM, first compound 0.0316 µM) 77.3% | viability, T/C (second compound 10 µM, first compound 0.1 µM) 78.8% | viability, T/C (second compound 10 µM, first compound 0.316 µM) 54.2% | viability, T/C (second compound 10 µM, first compound 1 µM) 36.3% | viability, T/C (second compound 10 µM, first compound 3.16 µM) 21.4% | viability, T/C (second compound 10 µM, first compound 10 µM) 14.4%
1110 nM: IC50 (second compound 0.316 µM)
1060 nM: IC50 (second compound 0.1 µM)
815 nM: IC50 (second compound 1 µM)

CNC(=O)c1ccc(N2C(=S)N(c3ccc(C#N)c(C(F)(F)F)c3)C(=O)C2(C)C)cc1F + CC(Nc1ccc2c(c1)OCCn1cc(N3C(=O)OCC3C(F)F)nc1-2)C(N)=O
356 nM: IC50 (second compound 1 µM)
> 10000 nM: IC50 (second compound 0.00316 µM) | IC50 (second compound 0.01 µM) | IC50 (second compound 0.0316 µM) | IC50 (second compound 0.1 µM) | IC50 (second compound 0.316 µM)
inactive: viability, T/C (second compound 0.00316 µM, first compound 0.0316 µM) 109% | viability, T/C (second compound 0.00316 µM, first compound 0.1 µM) 95.8% | viability, T/C (second compound 0.00316 µM, first compound 0.316 µM) 90.8% | viability, T/C (second compound 0.00316 µM, first compound 1 µM) 98% | viability, T/C (second compound 0.00316 µM, first compound 3.16 µM) 109% | viability, T/C (second compound 0.00316 µM, first compound 10 µM) 92.2% | viability, T/C (second compound 0.01 µM, first compound 0.0316 µM) 98% | viability, T/C (second compound 0.01 µM, first compound 0.1 µM) 83.8% | viability, T/C (second compound 0.01 µM, first compound 0.316 µM) 99.3% | viability, T/C (second compound 0.01 µM, first compound 1 µM) 89.4% | viability, T/C (second compound 0.01 µM, first compound 3.16 µM) 93.7% | viability, T/C (second compound 0.01 µM, first compound 10 µM) 106% | viability, T/C [1] 110% | viability, T/C [2] 111% | viability, T/C [3] 94.1% | viability, T/C [4] 113% | viability, T/C [5] 113% | viability, T/C [6] 99.2% | viability, T/C [7] 105% | viability, T/C [8] 95.5% | viability, T/C [9] 100% | viability, T/C [10] 112% | viability, T/C [11] 90.2% | viability, T/C [12] 86.1% | viability, T/C [13] 86.6% | viability, T/C [14] 80% | viability, T/C [15] 68.5% | viability, T/C [16] 79.4% | viability, T/C [17] 73.7% | viability, T/C [18] 63.4% | viability, T/C [19] 58% | viability, T/C [20] 50.4% | viability, T/C [21] 45.1% | viability, T/C [22] 51.6% | viability, T/C [23] 49.6% | viability, T/C [24] 38.5%

From PubChem BioAssay AID1963983 (Molecular Pharmacology Branch, DTP, NCI, 2024)
